Experimental data as given in patent US20230340061A1, “PEPTIDES AND METHODS FOR THE TREATMENT OF MULTIPLE SCLEROSIS” (IMCYSE SA, priority 2020, published 2023).

Assays:
[1] = tested on: CD4+ T cells of patients with multiple sclerosis; experiment: Generation of antigen specific CD4+ T cells, CD154 (CD40L) expression by flow cytometry; format: cell-based, human
Method: PBMCs were isolated from blood samples of patients with multiple sclerosis treated by dimethyl fumarate (DMF) on Lymphoprep density gradients.
CD14+ monocytes were isolated from these PBMCs by performing positive immunomagnetic separation with CD14 microbeads (Miltenyi Biotec, 130-050-201) according to the supplier recommendations. CD14+ monocytes were cultured for six days and maturated to generate autologous dendritic cells (mDC). CD19+ B cells were isolated from the CD14- PBMCs fraction by performing positive immunomagnetic separation with CD19 microbeads (Miltenyi Biotec, 130-050-301) according to the supplier recommendations. CD19+ B cells were cultured and immortalized with EBV to generate autologous lymphoblastoid cell lines (LCL).
(§1) Naïve CD4+ T cells were also purified from the CD14- PBMCs fraction by performing negative immunomagnetic separation with naïve CD4+ T cell isolation kit (Miltenyi Biotec, 130-094-131) according to the supplier recommendations. Naïve CD4+ T cells were co-cultured with autologous mDC or LCL in the presence of P2 and P4 peptides. The CD4+ T cells were re-stimulated periodically, about every 10-12 days.
The ability of the peptides to generate antigen specific CD4+ T cells was evaluated by flow cytometry analysis of the TCR induced surface activation marker CD154 (CD40L) expression after overnight co-culture at resting state with autologous LCL without (no peptide) or with the peptides (P2 or P4). The surface expression of the lytic marker Fas ligand (CD178) was also evaluated by flow cytometry analysis after overnight co-culture at resting state with autologous LCL without (no peptide) or with the peptide (P4).

[2] = tested on: CD4+ T cells of patients with multiple sclerosis; experiment: Cytokine secretion in CD4+ T cell culture supernatants (LEGENDplex Human Th Panel); format: cell-based; conditions: for specific secretion of cytokine (IL-5): culture supernatant of MS017 (S15) CD4+ cell line, P4 vs C-WT epitope peptides
Source text: as §1
The ability of the peptides to induce cytokines secretion in CD4+ T cells culture supernatants was evaluated by flow cytometry analysis after overnight co-culture at resting state with autologous mDC without (no peptide) or with the peptides (P2 or P4). Supernatants were analyzed with the LEGENDplex Human Th Panel (13-plex) (BioLegend, 740721) according to the supplier recommendations.

[3] = Oxidoreductase activity, fluorescent assay with FITC labelled peptides; format: biochemical; conditions: reduction of self-quenched FITC labelled peptides, fluorescence
Source text: The peptides of the invention comprise an MHC class II T-cell epitope or NKT cell epitope of MOG with a potential to trigger an immune reaction, and a modified oxidoreductase motif. The reducing activity of the motif sequence in the peptide can be assayed for its ability to reduce a sulfhydryl group such as in the insulin solubility assay wherein the solubility of insulin is altered upon reduction, or with a fluorescence-labelled substrate such as insulin. An example of such assay uses a fluorescent peptide and is described in Tomazzolli et al. (2006) Anal. Biochem. 350, 105-112. Two peptides with a FITC label become self-quenching when they covalently attached to each other via a disulfide bridge. Upon reduction by a peptide in accordance with the present invention, the reduced individual peptides become fluorescent again.
The oxidoreductase activity of the immunogenic peptides is determined using a fluorescent assay described in Tomazzolli et al. (2006) Anal. Biochem. 350, 105-112. Two peptides with a FITC label become self-quenching when they form a covalent disulfide bond. Upon reduction by a peptide in accordance with the present invention, the reduced individual FITC labelled peptides emit fluorescence again. The activity is expressed as the mean of duplicates. The results are expressed in Relative Fluorescent Units (RFU). […]

[4] = tested on: Experimental Auto-Immune Encephalomyelitis (EAE); experiment: Prophylactic administration in adoptive-transfer EAE; format: in vivo, mice; conditions: 100 μg s.c. with alum, days −21, −14, −7, +2, +9
Method: EAE was induced in recipient mice by immunizing donor B6.SJL mice with MOG35-55/CFA, and then, 11 days later, by taking their spleens and restimulating them in culture with MOG35-55 peptide for 3 days. Those cells, now fully encephalitogenic, were injected on Day 0 into recipient groups of mice, which developed EAE.
B6.SJL donor mice were acclimated for 13 days before the start of the study and were 9 weeks old at the time of immunization. Donor mice were used to generate encephalitogenic cells as follows: • Day −14: Immunization with MOG35-55/CFA. • Day −3: Spleen harvest. Mice were euthanized and spleens were harvested, pooled and cell suspension prepared. Cell suspension, at 4 to 5 million cells/mL in T150 flasks, were set up in cultures in the presence of MOG35-55 peptide (20 μg/mL), IL-12 ([…]) and anti-IFNγ (7 μg/mL) for 3 days to generate encephalitogenic T cells. • Day 0: Cell collection and transfer. Cells were collected and spun down, resuspended in RPM11640 (no FCS), counted, and injected into recipient mice at 10 million cells per mouse.
Recipient mice were acclimated for 6 days prior to the first injection and were 6 weeks old when treatment started (on Day −21). Mice were assigned to groups in a balanced manner, to achieve similar average weight across the groups at the start of the study.
Dosing of all mice was performed once on each of the days indicated in Table 4, s.c., at a volume of 0.05 mL/site, each mouse receiving injection at two sites, for a total of 0.1 mL/mouse/dosing day, corresponding to 100 μg of peptide.
For Vehicle treatment, Imject™ Alum solution was prepared at each dosing day. IMCY-0189 has the sequence described in example 6. Lyophilized IMCY-0189 was thawed at room temperature for 10 minutes, resuspended in Na Acetate buffer 50 mM pH 5.4 and incubated at room temperature for 5 minutes. Reconstituted peptide was then mixed with Imject™ Alum Adjuvant before injection.
At termination, blood was collected from all mice into tubes containing K2EDTA and mixed gently. Blood was then centrifuged at ˜10000 g for 5 minutes. Plasma was transferred into Eppendorf tubes and stored at −80° C. until shipment to Quanterix™. Plasma Neurofilament light (NF-L) protein levels were quantified using Simoa© NF-light Advantage kit as described in example 6.
EAE scoring, terminal collection, histology analyses and statistical analyses were performed as described in example 6.

[5] = tested on: Experimental Auto-Immune Encephalomyelitis (EAE); experiment: Therapeutic administration in MOG35-55-induced EAE; format: in vivo; conditions: 30 μg s.c. with alum, days 4, 9, 14, 19
Method: The study used a total of 48 female C57BL/6 mice (Taconic Biosciences, 9 weeks old on Day 0). Mice were acclimated for 7 days prior to the first injection. Mice were assigned to groups in a balanced manner to achieve similar average weight across the groups at the start of the study.
Dosing of all mice was performed once on each of the days indicated in Table 2, s.c., at a volume of 0.05 mL/site, each mouse receiving injection at two sites, for a total of 0.1 mL/mouse/dosing day. IMCY-0189 or P4 peptide total dose was 30 μg per administration.
Lyophilized immunogenic peptide IMCY-0189 with the sequence […] (SEQ ID NO: 260), comprising an oxidoreductase motif HCPYC (SEQ ID NO: 24), a linker GW, a murine Myelin Oligodendrocyte Glycoprotein (MOG35-55) MHCII T cell epitope […] (SEQ ID NO: 261) and a flanking sequence HLYR (SEQ ID NO: 262) (Smart Bioscience) was solubilized immediately before use. Lyophilized IMCY-0189 was thawed at room temperature for 10 minutes, resuspended in Na Acetate buffer 50 mM NaCl 0.9% pH 5.4 and incubated at room temperature for 10 minutes. Reconstituted peptide was then mixed with Imject™ Alum Adjuvant before injection.
Lyophilized immunogenic peptide P4 with the sequence […] (SEQ ID NO: 27), comprising an oxidoreductase motif KHCPYC (SEQ ID NO: 50), a linker VRY, a human Myelin Oligodendrocyte Glycoprotein (MOG201-212) MHCII T cell epitope […] (SEQ ID NO: 2) and a flanking sequence TLFKK (SEQ ID NO: 263) (Smart Bioscience) was solubilized immediately before use. Lyophilized P4 was thawed at room temperature for 10 minutes, resuspended in Na Acetate buffer 50 mM NaCl 0.9% pH 5.4 and incubated at room temperature for 10 minutes. Reconstituted peptide was then mixed with Imject™ Alum Adjuvant before injection.
EAE was induced in all mice as follows: • Day 0, Hour 0—Immunization with a peptide corresponding to the amino acids 35-55 of MOG (MOG35-55)/CFA • Day 0, Hour 2—Injection of pertussis toxin • Day 1, Hour 0—2nd injection of pertussis toxin (24 hours after initial immunization).
Mice were injected subcutaneously at two sites in the back with the emulsion component (containing MOG35-55) of Hooke Kit™ MOG35-55/CFA Emulsion PTX, catalog number EK-2110 (lot #131, Hooke Laboratories, Lawrence MA). One site of injection was in the area of upper back, approximately 1 cm caudal of the neck line. The second site was in the area of lower back, approximately 2 cm cranial of the base of the tail. The injection volume was 0.1 mL at each site. Each mouse received 200 μg of MOG35-55.
Within 2 hours of the injection of emulsion, and then again 24 hours after the injection of emulsion, the pertussis toxin component of the kit was administered intraperitoneally. The pertussis toxin (lot #1008, Hooke Laboratories) was administered at 90 ng/dose for both injections and the volume of each injection was 0.1 mL.
Animals were scored daily starting from Day 7 to the end of the study. Scoring was performed blind, by a person unaware of both treatment and of previous scores for each mouse. In-between scores were assigned when the clinical signs fell between two above defined scores.
On Day 28, blood was collected from all mice into gel clot activator tubes and allowed to clot at room temperature for ˜30 minutes. Blood is then centrifuged at ˜10000 g for 5 minutes. Serum was transferred into Eppendorf tubes and stored at −80° C. until shipment to Quanterix™. Serum Neurofilament light (NF-L) protein levels were quantified using Simoa® NF-light Advantage kit, a digital immunoassay for the quantitative determination of NF-L in serum, plasma and CSF. The used antibodies (Uman Diagnostics, Umea Sweden) also cross react with murine, bovine and macaque NF-L epitopes and as such, this assay can be used for research with these species. All samples were tested in duplicate at a dilution factor of 40×. […]

[6] = biological target: T1, soluble HLA-DRB1*03:01 human MHC II protein (human); experiment: soluble-phase competition vs biotin-labelled control peptide, Eu3+-streptavidin time-resolved fluorescence
T1 construct: Soluble protein purchased from the Benaroya Research Institute; also called HLA-DR3; DR3

[7] = biological target: T2, soluble HLA-DRB1*04:01 human MHC II protein (human); experiment: soluble-phase competition vs biotin-tagged control peptide, Eu3+-streptavidin fluorescence (FIG. 3)
T2 construct: Soluble protein purchased from the Benaroya Research Institute; also called HLA-DR4; DR4
Method: To test the binding of the immunogenic peptides to MHCII molecules, a soluble phase competition assay is performed. […] As binding approaches its equilibrium (18h), biotin-labelled peptide/MHC II complexes are captured, separated from unbound reagents, and quantitatively detected by time-resolved fluorescence (Eu³⁺ streptavidin, Perkin Elmer, Brussels, Belgium). […] Data are processed and plotted to ascertain dose-dependent binding properties of test peptides. All the tests are performed in triplicates.

HCPYCVRYFLRVPSWKITLF [P2]
generation of peptide-specific CD4+ T cell lines from MS patients ([1]; naive CD4+ T cells co-cultured with autologous mDC or LCL in presence of peptide): able to generate P2-specific CD4+ T cell lines from four different MS patients | frequency of effector cells (CD3+CD4+CD154+) ([1]; patients' CD4+ cell lines, overnight co-culture with autologous LCL with peptide vs no peptide): high frequency | specific secretion of cytokines (IL-5 and IL-13) ([2]; culture supernatant of MS026 CD4+ cell line (S11)): specific secretion

HCPYCGG-FLRVPCWKI [P7]
oxidoreductase activity [3]: displayed oxidoreductase activity

HCPYCGWYRSPFSRVVHLYR [IMCY-0189]
mortality [4]: No mice died | AUC (area under the curve) of EAE scores ([4]; vs Alum group): statistically significantly improved | MMS (mean maximal score) ([4]; vs Alum group): statistically significantly improved | disease onset ([4]; vs Alum group): statistically significantly improved | end score ([4]; vs Alum group): statistically significantly improved | level of demyelination (anti-MBP stained spinal cord sections) ([4]; vs Alum group): statistically significantly reduced level | level of inflammation (inflammatory foci, H&E stained spinal cord sections) ([4]; vs Alum group): statistically significantly reduced level | plasma NF-L levels ([4]; at termination, vs Alum group): statistically significantly reduced | mortality ([5]; to day 28): No mice died | AUC (area under the curve) of EAE scores ([5]; vs Saline group): statistically significant reduced | MMS (mean maximal score) ([5]; vs Saline group): statistically significant reduced | disease onset ([5]; vs Saline group): postponed | level of demyelination (anti-MBP stained spinal cord sections) ([5]; vs Saline group): statistically significantly reduced level | level of inflammation (inflammatory foci, H&E stained spinal cord sections) ([5]; vs Saline group): statistically significantly reduced level | serum NF-L levels ([5]; Day 28, vs Saline group): statistically significant reduced | end score ([5]; EAE score 0-5, vs Saline group): reduced

QYRLRGKLRAEIENLHRTFDPHFLRVPCWKITLFVIVPVLGP [long C-WT, reference compound]
specific secretion of cytokine (IL-5) [2]: specific secretion

DPHFLRVPCWKITLFKK [short C-WT, reference compound]
specific induction of effector cells (CD3+CD4+CD154+) ([1]; P4-specific CD4+ cell lines of patients MS017 (S14) and MS026 (S13), overnight co-culture): specific induction | specific secretion of cytokine (IL-5) [2]: specific secretion

B1: P2 peptide HCPYCVRYFLRVPSWKITLF (peptide)
peptide: HCPYCVRYFLRVPSWKITLF
notes: Synthetic
binding result [6]: binds | binding result [7]: binds
